In data set [1] the test system is antibody response to the KLH antigen. Conditions: days 7, 14, and 21 post-immunization; MBV 1 mg/ml i.v. on Day 0, 3, 6; cyclophosphamide 200 mg/kg i.p. on Day 0. The method, then:
The Keyhold Limpet Hemocyanin (KLH) rat model of immunosuppression and immunotoxicity was used to assess immunotoxicity of MBV delivered systemically. […] On Day 0, the cyclophosphamide treated animals received 200 mg/kg i.p. and the MBV treated animals received 1 mg/ml UBM MBV delivered intravenously on Day 0, 3, and 6. On Day 7, all groups besides the vehicle control were immunized with 0.4 mL of 1000 μg/ml reconstituted KLH in Freund's incomplete adjuvant i.p. On days 14, 21, and 28 (7, 14, and 21 days post-immunization), whole blood was collected from the lateral tail vein and serum was isolated for analysis of anti-KLH IgM and IgG. Anti-KLH IgM and IgG were assessed in the serum of all animals using ELISA.

The subject of data set [2] is Pristane-induced arthritis. As to the kind of experiment: Pristane-induced arthritis in rats, 60-point arthritis score. Format: in vivo. Conditions: for disease severity (arthritis score) compared to Pristane+PBS: p<0.05. The method, then:
The Pristane-induced arthritis model in rats has been established as a clinically-relevant animal model for studying rheumatoid arthritis (Tuncel et al. PLoS One. 2016; 11(5):e0155936). Pristane induced arthritis was induced in 8-week-old, female, Sprague-Dawley rats by an intradermal injection of 300 μL Pristane (2,6,10,14-tetramethypentadecane) at the dorsal side of the tail, 1 cm distal to the base on Day 0 of the study. […] A second dose of 300 μL pristane was administered intradermally, approximately 1 cm distally to the dorsal tail base on Day 4. Animals receiving Pristane were housed together in cages. Animals receiving Pristane were randomized into the following experimental groups: Pristane-only+PBS, Pristane+i.p. Methotrexate (MTX), Pristane+periarticular (p.a.) MBV, and intravenous (i.v.) MBV.
An arthritis score was determined on days 7, 10, 14, 17, 21, 28, and every week thereafter through an endpoint of 100 days for each animal. Photographs of each forepaw and hindpaw were taken as viewed from the volar and plantar perspectives, respectively. Qualitative arthritis severity was evaluated by two independent reviewers using a 60-point arthritis scoring criteria: 1 point was given for each inflamed knuckle or toe, and up to 5 points was assigned for an affected ankle (15 points per paw, 60 points per each rat). […] The Pristane+i.p. methotrexate animals received 0.1 mg/kg methotrexate in 1× sterile PBS (pH 7.4) delivered intra-peritoneally (i.p.) on days 7, 10, 14, 17, and 21. The Pristane+periarticular MBV animals received 25 μL of 500 μg/mL porcine-derived UBM MBV (1×10^11 particles/mL) delivered in the plantar and volar surfaces of hindpaws and forepaws, respectively. The intravenous MBV group received 100 μL of 500 μg/mL UBM MBV (1×10^11 particles/mL) delivered intravenously into the lateral tail vein of the animal. (FIG. 12A) Four animals in each group were assigned to a short-term study of 28 days and four animals were assigned to a 100 day study. Sample size was determined using previously published effect size of methotrexate with a predetermined alpha 0.05 and beta 0.80. Arthritis score was represented as mean+/−standard error of mean. Days 7-21 represent an n of 8 for each group and then days 28 and onward represent an n of 4 for each group. Differences in groups were analyzed using two-way analysis of variance with Tukey's post-hoc correction. Significance was determined prior to the study as p<0.05.

The subject of data set [3] is tibiotalar joint and adjacent synovium. As to the kind of experiment: Histopathologic scoring of the tibiotalar joint at day 100 (pristane-induced arthritis). Format: in vivo, Sprague-Dawley rats. Particulars: i.p. MTX, not significant (p>0.05). The text has this:
Synovial inflammation, cartilage destruction, and proteoglycan loss are fundamental histopathologic changes that occur in RA disease progression. To determine the effect of MBV treatment on these histopathologic parameters, rat hind paws were collected at study termination for histopathologic imaging and analysis (day 100) from the animals from Example 2.
One hindpaw from each animal was used for histopathological analysis. Tissue specimens were fixed with 10% formalin in PBS, pH 7.4, decalcified using 5% formic acid, and embedded in paraffin wax. Sections were stained with hematoxylin and eosin (H&E) for examination by light microscopy for joint histology and pathology. […]
Inflammation and joint damage of the tibiotalar joint were investigated by using an adapted three-parameter scoring system. Inflammation was scored on a scale of 0-3 (with 0 representing no inflammation and 3 a severe inflamed joint) depending on the relative proportion of inflammatory cells in the synovial tissue. Cartilage destruction was scored on a scale of 0-3, with results ranging from the appearance of dead chondrocytes and empty lacunae to complete loss of articular cartilage. Loss of proteoglycans in cartilage was scored on a scale of 0-3, and here results ranged from fully stained cartilage by toluidine blue staining to complete loss of articular cartilage. […]

Data set [4] concerns bone remodeling and joint destruction in fore- and hindpaws. As to the kind of experiment: MicroCT imaging of paws at day 100 (pristane-induced arthritis). Format: in vivo, Sprague-Dawley rats. Conditions: i.p. MTX, qualitative. From the text:
Micro-Computed Tomography (microCT) images were acquired of hindpaws after sacrifice at day 100 of the animals studied in Example 2.

Consider `O=P1(N(CCCl)CCCl)NCCCO1` (stereo not shown) [Cyclophosphamide], for which, in data set [1], the “anti-KLH IgG levels compared to the Vehicle+KLH control” value is reported as “significantly reduces anti-KLH IgG levels” and the “anti-KLH IgM levels compared to the Vehicle+KLH control” value is reported as “significantly reduces anti-KLH IgM levels”.
`CN(Cc1cnc2nc(N)nc(N)c2n1)c1ccc(C(=O)N[C@@H](CCC(=O)O)C(=O)O)cc1` [MTX, methotrexate]: in data set [2] (acute phase (days 0-42), Pristane+i.p. MTX 0.1 mg/kg on days 7, 10, 14, 17, 21, peak at day 21, mean±SEM), the peak disease score was determined as 9.8±0.8. For the same molecule, the “disease severity (arthritis score) compared to Pristane+PBS” value was “reduced acute disease severity at days 10, 14, 17, and 21” in data set [2] (acute phase, Pristane+i.p. MTX 0.1 mg/kg); “significantly reduces disease scoring” in data set [2] (acute phase, Pristane+i.p. MTX 0.1 mg/kg, listed as methotrexate); “significant decrease in disease severity” in data set [2] (chronic phase, days 84-100, no treatment after day 28, Pristane+i.p. MTX); “significantly reduces disease scoring” in data set [2] (chronic phase, days 84-100, no treatment after day 28, Pristane+i.p. MTX, listed as methotrexate). The “severity of cartilage damage compared to Pristane+PBS” value in data set [3] is “reduced the severity of cartilage damage”. Also, the “severity of proteoglycan loss compared to Pristane+PBS” value in data set [3] was “reduced the severity of proteoglycan loss”. In data set [4], the “adverse bone remodeling by microCT, compared to the vehicle control” value is reported as “substantially prevented adverse bone remodeling”.

The values are drawn from US20240226170A9, “USE OF MBV FOR TREATING AUTOIMMUNE DISEASE” (University of Pittsburgh - Of the Commonwealth System of …, priority 2019, published 2024).
